Source: patent publication EP4574811A1, “CRYSTALLINE FORMS OF ELACESTRANT DIHYDROCHLORIDE” (SANDOZ AG, priority 2023, dated 2025)
Counter-ions that a name gives are not always drawn.

Assay: Dissolution testing (aqueous solubility in water at 24°C)
Format: physicochemical
Conditions: dihydrochloride; for stability of the supersaturated solution: 51.9 mg/ml solution in water at 24 °C; for Aqueous solubility (concentration of clear solution): in water at 24 °C
Protocol: Aqueous solubility was determined dissolution experiments of Elacestrant dihydrochloride of the present invention in water at 24°C.

| Structure (SMILES) | stability of the supersaturated solution | stability of the supersaturated solution (listed as form B) | Aqueous solubility (concentration of clear solution) | Aqueous solubility (concentration of clear solution) (listed as form A) |
| --- | --- | --- | --- | --- |
| CCNCCc1ccc(CN(CC)c2cc(OC)ccc2[C@@H]2CCc3cc(O)ccc3C2)cc1 [Form B, (6R)-6-(2-(ethyl((4-(2-(ethylamino)ethyl)phenyl)-methylamino)-4-methoxyphenyl)-5,6,7,8-Tetrahydronaphthalen-2-oldihydrochloride] | instable | precipitation of Elacestrant dihydrochloride was occurred | 51.9 mg/mL |  |
| CCNCCc1ccc(CN(CC)c2cc(OC)ccc2[C@@H]2CCc3cc(O)ccc3C2)cc1 [Form 1, (6R)-6-(2-(ethyl((4-(2-(ethylamino)ethyl)phenyl)-methylamino)-4-methoxyphenyl)-5,6,7,8-Tetrahydronaphthalen-2-oldihydrochloride, reference compound] |  |  | less than 9,2 mg/ml |  |
| CCNCCc1ccc(CN(CC)c2cc(OC)ccc2[C@@H]2CCc3cc(O)ccc3C2)cc1 [Form A, (6R)-6-(2-(ethyl((4-(2-(ethylamino)ethyl)phenyl)-methylamino)-4-methoxyphenyl)-5,6,7,8-Tetrahydronaphthalen-2-oldihydrochloride] |  |  | 34,5 mg/ml | about 34.5 mg/ml |
